Measured values reported in patent publication US4321381A, “Ergot derivatives” (Farmitalia Carlo Erba S.p.A., priority 1978, dated 1982).

How the values were obtained:
[1] = test system: spontaneously hypertensive male rats, strain MHS; assay: Anti-hypertensive activity in the spontaneously hypertensive rat (MHS): blood pressure and heart rate at the tail; format: in vivo
Description: 1. Spontaneously Hypertensive Rat (MHS)
Four spontaneously hypertensive male rats, strain MHS, weight 250 to 300 g for each group were used. The animals were treated for four consecutive days. The drugs were administered by gastric gavage while suspended in 5% arabic gum (0.2 ml/100 g body weight), and blood pressure (BP) and heart rate (HR) were measured at the tail by BP Recorder W+W. Blood pressure and heart rate were measured on the first and fourth day of treatment 1 hour before and 1 and 5 hours after drug administration.

normotensive rats = assay: Blood pressure and heart rate in the conscious normotensive rat (NR); format: in vivo; conditions: 5 mg/kg os
Description: Blood pressure recordings have been made in conscious normotensive unrestrained rats weighing approximately 300 g, via a catheter chronically inserted into the left common carotid artery. Implantation of arterial cannula was made under sodium pentobarbital anesthesia (50 mg/kp i.p.) A 1 cm long incision was made through the previously shaved ventral surface of the neck and the tissues overlying the trachea parted by blunt dissection to reveal the carotid artery. The polyethylene catheter used was made with PE 50 tubing, previously filled with saline containing 250 I.U./ml heparin. The tip of the cannula was pushed at least 2 cm inside the vessel toward the heart. The cannula was then firmly tied and passed beneath the skin to emerge from a small incision in the back of the neck. During the post-operative period and before the start of each recording session, the cannula was flushed through daily with saline containing heparin (250 I.U./ml). The experiments were performed two days after surgery. Drugs were administered by gastric gavage.

[2] = Acute toxicity (LD50) in mice; format: in vivo, mouse; conditions: mouse, in vivo; male mice; oral; observed for seven days
Text: Evaluation of the Toxicity (LD50)
Ten male mice for each group were orally treated with drugs at different dose levels for the determination of lethal dose 50 (LD50).

Row | Compound | Change in BP, 1 hr after dose, first day ([1]; 2 mg/kg os) [mm Hg] | Change in HR, 1 hr after dose, first day ([1]; 2 mg/kg os) [b/min] | Change in HR, 5 hr after dose, first day ([1]; 2 mg/kg os) | Change in BP, 5 hrs after dose, first day ([1]; 2 mg/kg os) [mm Hg] | Change in BP, 1 hr after dose, fourth day ([1]; 2 mg/kg os) [mm Hg] | Change in HR, 1 hr after dose, fourth day ([1]; 2 mg/kg os) [b/min] | Change in HR, 5 hr after dose, fourth day ([1]; 2 mg/kg os) | Change in BP, 5 hrs after dose, fourth day ([1]; 2 mg/kg os) [mm Hg] | Change in BP, 1 hr after dose, first day ([1]; 5 mg/kg os) [mm Hg] | Change in HR, 1 hr after dose, first day ([1]; 5 mg/kg os) | Change in HR, 5 hr after dose, first day ([1]; 5 mg/kg os) | Change in BP, 5 hrs after dose, first day ([1]; 5 mg/kg os) [mm Hg] | Change in BP, 1 hr after dose, fourth day ([1]; 5 mg/kg os) [mm Hg] | Change in HR, 1 hr after dose, fourth day ([1]; 5 mg/kg os) | Change in HR, 5 hr after dose, fourth day ([1]; 5 mg/kg os) | Change in BP, 5 hrs after dose, fourth day ([1]; 5 mg/kg os) [mm Hg] | Change in Blood Pressure after Treatment, 30' (normotensive rats) [mm Hg] | Change in heart rate after treatment, 30' (normotensive rats) [b/min] | Change in Blood Pressure after Treatment, 60' (normotensive rats) [mm Hg] | Change in heart rate after treatment, 60' (normotensive rats) [b/min] | also measured
1 | CN1C[C@H](CC(C#N)C(N)=O)C[C@@H]2c3cccc4[nH]cc(c34)C[C@H]21 (stereo partly drawn) [355/1057, 2-Cyano-3-(6'-methylergoline-8'β)-propionamide] | -25 | 0 | -8 b/min | 0 | -26 | -2 | -5 b/min | -31 | -51 | +5 b/min | +35 b/min | -41 | -45 | +25 b/min | +20 b/min | -31 | -23 | -25 | -23 | -40 | Change in Blood Pressure after Treatment, 120' (normotensive rats): -22 mm Hg; Change in heart rate after treatment, 120' (normotensive rats): -42 b/min; Change in Blood Pressure after Treatment, 180' (normotensive rats): -21.7 mm Hg; Change in heart rate after treatment, 180' (normotensive rats): -22 b/min; Change in Blood Pressure after Treatment, 240' (normotensive rats): -23 mm Hg; Change in heart rate after treatment, 240' (normotensive rats): +10 b/min; Change in Blood Pressure after Treatment, 360' (normotensive rats): -20 mm Hg; Change in heart rate after treatment, 360' (normotensive rats): +3 b/min; Change in Blood Pressure after Treatment, 24h (normotensive rats): -12 mm Hg; Change in heart rate after treatment, 24h (normotensive rats): +6 b/min; LD50 at 168 h [2]: > 1000 mg/kg
2 | CN1C[C@H](CC(C#N)C(=O)NCc2ccccc2)C[C@@H]2c3cccc4[nH]cc(c34)C[C@H]21 (stereo partly drawn) [Example 1131, 2-Cyano-3-(6'-methylergoline-8'β)-N-benzylpropionamide] | -26 | -20 | +5 b/min | -9 | -22 | -55 | +5 b/min | -25 | -48 | -18 b/min | +10 b/min | -43 | -17 | +18 b/min | -8 b/min | -16 | -22 | -20 | -22 | -30 | Change in Blood Pressure after Treatment, 120' (normotensive rats): -23 mm Hg; Change in heart rate after treatment, 120' (normotensive rats): -20 b/min; Change in Blood Pressure after Treatment, 180' (normotensive rats): -20 mm Hg; Change in heart rate after treatment, 180' (normotensive rats): -20 b/min; Change in Blood Pressure after Treatment, 240' (normotensive rats): -19 mm Hg; Change in heart rate after treatment, 240' (normotensive rats): -10 b/min; Change in Blood Pressure after Treatment, 360' (normotensive rats): -10 mm Hg; Change in heart rate after treatment, 360' (normotensive rats): +10 b/min; Change in Blood Pressure after Treatment, 24h (normotensive rats): 0 mm Hg; Change in heart rate after treatment, 24h (normotensive rats): +10 b/min; LD50 at 168 h [2]: > 1000 mg/kg
3 | CN1C[C@H](CC(C#N)C(=O)N2CCCC2)C[C@@H]2c3cccc4[nH]cc(c34)C[C@H]21 (stereo partly drawn) [Example 1133, 2-Cyano-3-(6'-methylergoline-8'β)-N-propionyl-pyrrolidine] | -20 | -33 | -28 b/min | -11 | -21 | -20 | -3 b/min | -10 | -24 | 0 b/min | +13 b/min | -9 | -42 | -13 b/min | -8 b/min | -25 | -15 | -25 | -20 | -45 | Change in Blood Pressure after Treatment, 120' (normotensive rats): -15 mm Hg; Change in heart rate after treatment, 120' (normotensive rats): -40 b/min; Change in Blood Pressure after Treatment, 180' (normotensive rats): -10 mm Hg; Change in heart rate after treatment, 180' (normotensive rats): -40 b/min; Change in Blood Pressure after Treatment, 240' (normotensive rats): -9 mm Hg; Change in heart rate after treatment, 240' (normotensive rats): -10 b/min; Change in Blood Pressure after Treatment, 360' (normotensive rats): 0 mm Hg; Change in heart rate after treatment, 360' (normotensive rats): -5 b/min; Change in Blood Pressure after Treatment, 24h (normotensive rats): +5 mm Hg; Change in heart rate after treatment, 24h (normotensive rats): 0 b/min; LD50 at 168 h [2]: 500 mg/kg
4 | CCNC(=O)C(C#N)C[C@@H]1C[C@@H]2c3cccc4[nH]cc(c34)C[C@H]2N(C)C1 (stereo partly drawn) [Example 1138, 2-Cyano-3-(6'-methylergoline-8'β)-N-ethylpropionamide] | -23 | -25 | -10 b/min | -14 | -30 | -47 | -12 b/min | -15 | -25 | -8 b/min | +5 b/min | -9 | -26 | -20 b/min | -25 b/min | -11 | -10 | -15 | -20 | -30 | Change in Blood Pressure after Treatment, 120' (normotensive rats): -15 mm Hg; Change in heart rate after treatment, 120' (normotensive rats): -30 b/min; Change in Blood Pressure after Treatment, 180' (normotensive rats): -10 mm Hg; Change in heart rate after treatment, 180' (normotensive rats): -15 b/min; Change in Blood Pressure after Treatment, 240' (normotensive rats): -10 mm Hg; Change in heart rate after treatment, 240' (normotensive rats): 0 b/min; Change in Blood Pressure after Treatment, 360' (normotensive rats): 0 mm Hg; Change in heart rate after treatment, 360' (normotensive rats): +5 b/min; Change in Blood Pressure after Treatment, 24h (normotensive rats): 0 mm Hg; Change in heart rate after treatment, 24h (normotensive rats): +10 b/min; LD50 at 168 h [2]: 500 mg/kg
